The source of these data is patent US20220175761A1, “BI-LIGAND DRUG CONJUGATE AND USE THEREOF” (COHERENT BIOPHARMA (SUZHOU), LIMITED, priority 2019, published 2022).

Square brackets hold non-standard residues; d marks the D form. Peptide text beside a SMILES is read from it. * marks the point of attachment. Dolaproine = CO[C@@H]([C@@H]1CCCN1)[C@@H](C)C(=O)O; Dil = CC[C@H](C)[C@H](NC)[C@@H](CC(=O)O)OC; X1 = C[C@@H](N*)[C@@H](O)c1ccccc1; NMeV = CN[C@H](C(=O)O)C(C)C

Data set [1] in a line: Body weight and clinical observation in the LU1206 study. As to conditions: 0.375 mg/kg on day 1, 8, 15.
Description: BALB/c nude mice bore tumors subcutaneously and, when the tumor volume reached about 150 mm^3, were grouped into: low-dose, medium-dose and high-dose test sample groups, a small molecule MMAE control group, a targeting polypeptide 20BK-SM09 control group, and a blank control group (a total of 6 groups, and 8 mice per group); the mice were administered on day 1, day 8 and day 15 after the grouping; and the observation was continued for 14 days after the last administration.
The test system of data set [2] is NCI-H226 (human lung cancer cells). The data set is described as follows: Inhibition of cell line proliferation, CCK8. It counts as cell-based. As to conditions: NCI-H226, 68-72 hours, CCK8.
For data set [3], the system named is KB, T-47D, NCI-H460, CALU-3, HuH-7, and LNCaP tumor cell lines. The data set is described as follows: Inhibition of tumor cell expansion, CCK8 (CB-20BK). It counts as cell-based, human. How it is done: Cell lines: KB human oral epidermoid carcinoma cells, T-47D human breast cancer cells, NCI-H460 human lung cancer cells, CALU-3 human lung adenocarcinoma cells, HuH-7 human liver cancer cells and LNCaP human prostate cancer cells
The cells were prepared in advance, digested with trypsin, collected and counted; with a complete cell culture medium, KB cells were diluted to 2.5×10^4 cells/ml, T-47D cells were diluted to 1.3×10^4 cells/ml, NCI-H460 cells were diluted to 3.5×10^4 cells/ml, CALU-3 cells were diluted to 4.0×10^4 cells/ml, HuH-7 cells were diluted to 3.0×10^4 cells/ml, and LNCaP cells were diluted to 8.0×10^4 cells/ml; 100 μl of the diluted cell solution was added to each well of 96-well plates; and negative control and blank control wells were set on each plate. The 96-well plates added with the cells were placed in an incubator at 37° C., 5% CO2 for culturing overnight.
The samples were diluted with a culture medium to desired concentrations (see Table 8). […]
To each well, 15 μl (10% of the liquid volume in a well) of a color developing solution from CCK-8 was added; the plates were incubated at 37° C. for an appropriate time (try to keep the OD value in the range of 1.0-2.0); the covers of the 96-well plates were removed, and the plates were read at 450 nm on a microplate reader (Molecular Devices Spectra MAX Plus). […]

A further data set concerns LNCaP. The data set is described as follows: Pharmacodynamic study 2 in CDX model. It counts as in vivo, BALB/c-nude mice. The following applies: 3 mg/kg D1, 8, 15, tail vein. How it is done:
Experiment purpose: to perform a pharmacodynamic study of conjugate compound CB-20BK in a subcutaneous xenograft model (CDX) of humanized LNCaP, DU145 and NCI-H460 cell lines
The cells or tumor tissue mass were prepared and subcutaneously inoculated into the anterior right flank of BALB/c-nude mice. When the tumor volume expanded to 80-160 mm^3, a randomized grouping was performed, and a model control group and administration groups were set. The mice were administrated from the first day of grouping, wherein the administration dose was adjusted according to the latest weight measurement. The mice were administrated via tail vein injection at an administration volume of 10 μl/g. After grouping and administration, the effects of tumor growth and treatment on normal behaviors of animals, specifically including the activity of experimental animals, food intake and drinking status, weight gain or loss status, and other abnormal conditions in eyes, hair, etc., were monitored. After grouping and administration, the weight of mice was measured twice a week to calculate the rate of weight change; at the same time, the long diameter and short diameter of the tumor were measured with a vernier caliper, and the tumor volume, relative tumor proliferation rate, tumor volume inhibition rate and other indicators were calculated. […]

A further data set deals with T1, FOLR1 (Homo sapiens, UniProt P15328).
T1 construct: purchased R&D System 5646-FR
Description: BIAcore T200 binding affinity to FOLR1 (CM5 chip conjugated with FOLR1). The text has this:
Buffer: HBS-EP+ buffer 10× (GE, Cat #: BR100669), diluted 10 folds with deionized water before use.
In the experiment, CM5 chip was conjugated with ligand FOLR1 (R&D System, Cat #: 5646-FR).

Setting [4] is: FOLR1 on CM5 chip, N/D = no specific binding was detected.

T1 sequence (P15328 25-233 limits assumed): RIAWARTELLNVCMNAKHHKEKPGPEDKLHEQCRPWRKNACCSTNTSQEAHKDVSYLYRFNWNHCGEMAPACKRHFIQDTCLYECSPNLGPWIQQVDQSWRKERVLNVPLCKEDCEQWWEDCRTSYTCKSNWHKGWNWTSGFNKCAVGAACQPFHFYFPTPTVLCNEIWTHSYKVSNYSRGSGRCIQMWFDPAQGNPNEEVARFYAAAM

With `CC[C@H](C)[C@@H]([C@@H](CC(=O)N1CCC[C@H]1[C@H](OC)[C@@H](C)C(=O)N[C@H](C)[C@@H](O)c1ccccc1)OC)N(C)C(=O)[C@@H](NC(=O)[C@@H](NC)C(C)C)C(C)C` [MMAE, monomethyl auristatin E] (H-[NMeV]V[Dil][Dolaproine]-X1), the Weight in data set [1] was found to be 23.6 g. Further, half-maximal inhibition in data set [2] (IC50) was put at 6 nM.
Turning to `CC[C@H](C)[C@@H]([C@@H](CC(=O)N1CCC[C@H]1[C@H](OC)[C@@H](C)C(=O)N[C@H](C)[C@@H](O)c1ccccc1)OC)N(C)C(=O)[C@@H](NC(=O)[C@H](C(C)C)N(C)C(=O)OCc1ccc(NC(=O)C(CCCNC(N)=O)NC(=O)[C@@H](NC(=O)CCCCCN2C(=O)CC(SC[C@H](NC(=O)[C@H](CCCCN)NC(=O)[C@H](CC(=O)O)NC(=O)[C@H](CC(=O)O)NC(=O)Cc3ccc(CNC(=O)NCCCC[C@H](NC(=O)N[C@@H](CCC(=O)O)C(=O)O)C(=O)O)cc3)C(=O)N[C@@H](CCCCNC(=O)CC[C@H](NC(=O)c3ccc(NCc4cnc5[nH]c(N)nc(=O)c5n4)cc3)C(=O)O)C(N)=O)C2=O)C(C)C)cc1)C(C)C` (stereo partly drawn) [CB-20BK], the “inhibitory effect on growth and expansion of tumor cell lines” value in data set [3] (72 hours, CCK-8) is “has an inhibitory effect”. In addition, the “IC50 compared between cell lines” value in data set [3] (T-47D, KB, LNCaP, HuH-7 and CALU-3 versus NCI-H460) was “significantly lower”. Also, the “Tumor growth inhibition rate (TGI)” value in the data set with LNCaP turned out to be 95.68%. Also, at FOLR1 (BIAcore T200), the “specific binding to FOLR1 (in words)” value is reported as “specifically binds to FOLR1 with a good affinity”. On FOLR1 (setting [4]), the Kd (commonly the concentration at which binding is half-saturated) stood at 0.127 nM and the kd was determined as 0.000131 s⁻¹. In addition, the kon on FOLR1 (FOLR1 on CM5 chip, N/D = no specific binding was detected, read-out: ka) was 1.03e+06 M⁻¹ s⁻¹.
